These results are taken from ChEMBL document CHEMBL4118220, “Design, synthesis and biological evaluation of phosphopeptides as Polo-like kinase 1 Polo-box domain inhibitors” (Bioorg Med Chem, 2018).

The subject of data set [1] is HeLa. Put plainly: Induction of apoptosis in human HeLa cells assessed as late apoptotic cells at 10 uM after 48 hrs by Annexin V-FITC/propidium iodide staining based flow cytometry (reference value: 0%). The format is functional. (In general: In flow cytometry, cells or beads pass a laser one at a time.)
For data set [2], the system named is HeLa. Put plainly: Induction of apoptosis in human HeLa cells assessed as viable cells at 10 uM after 48 hrs by Annexin V-FITC/propidium iodide staining based flow cytometry (reference value: 39.5%). In kind it is functional. The following applies: read-out: Activity.
The test system of data set [3] is HeLa. Put plainly: Cell cycle arrest in human HeLa cells assessed as accumulation at G2/M phase at 5 to 20 uM after 48 hrs by propidium iodide staining based flow cytometry. The format is functional.
Data set [4] relates to HeLa. Put plainly: Induction of apoptosis in human HeLa cells assessed as early apoptotic cells at 5 uM after 48 hrs by Annexin V-FITC/propidium iodide staining based flow cytometry (reference value: 0%). The format is functional.
In data set [5] the test system is HeLa. Description: Induction of apoptosis in human HeLa cells assessed as viable cells at 5 uM after 48 hrs by Annexin V-FITC/propidium iodide staining based flow cytometry (reference value: 39.5%). In kind it is functional. The following applies: read-out: Activity.
The test system of data set [6] is HeLa. Description: Induction of apoptosis in human HeLa cells assessed as necrotic cells at 20 uM after 48 hrs by Annexin V-FITC/propidium iodide staining based flow cytometry (reference value: 0.5%). The format is functional.
Data set [7] concerns HeLa. Put plainly: Induction of apoptosis in human HeLa cells assessed as early apoptotic cells at 10 uM after 48 hrs by Annexin V-FITC/propidium iodide staining based flow cytometry (reference value: 0%). The format is functional.
Data set [8] deals with HeLa. Put plainly: Induction of apoptosis in human HeLa cells assessed as necrotic cells at 10 uM after 48 hrs by Annexin V-FITC/propidium iodide staining based flow cytometry (reference value: 0.5%). The format is functional.
In data set [9] the test system is HeLa. Description: Induction of apoptosis in human HeLa cells assessed as late apoptotic cells at 5 uM after 48 hrs by Annexin V-FITC/propidium iodide staining based flow cytometry (reference value: 0%). The format is functional.
Data set [10] addresses Serine/threonine-protein kinase PLK3 (Homo sapiens, UniProt Q9H4B4). Description: Inhibition of FITC-GPLATSpTPKNG-OH binding to Plk3 PBD (unknown origin) after 30 mins by fluorescence polarization assay. Background: In fluorescence polarisation assays a small probe gives low polarisation when free and higher when bound to something large.
The subject of data set [11] is HeLa. Put plainly: Induction of apoptosis in human HeLa cells assessed as early apoptotic cells at 20 uM after 48 hrs by Annexin V-FITC/propidium iodide staining based flow cytometry (reference value: 0%). In kind it is functional.
The subject of data set [12] is HeLa. Description: Induction of apoptosis in human HeLa cells assessed as necrotic cells at 5 uM after 48 hrs by Annexin V-FITC/propidium iodide staining based flow cytometry (reference value: 0.5%). In kind it is functional.
For data set [13], the target named is Serine/threonine-protein kinase PLK2 (Homo sapiens, UniProt Q9NYY3). Description: Inhibition of FITC-GPMQTSpTPKNG-OH binding to Plk2 PBD (unknown origin) after 30 mins by fluorescence polarization assay.
Chain of Serine/threonine-protein kinase PLK2 (Q9NYY3 whole entry): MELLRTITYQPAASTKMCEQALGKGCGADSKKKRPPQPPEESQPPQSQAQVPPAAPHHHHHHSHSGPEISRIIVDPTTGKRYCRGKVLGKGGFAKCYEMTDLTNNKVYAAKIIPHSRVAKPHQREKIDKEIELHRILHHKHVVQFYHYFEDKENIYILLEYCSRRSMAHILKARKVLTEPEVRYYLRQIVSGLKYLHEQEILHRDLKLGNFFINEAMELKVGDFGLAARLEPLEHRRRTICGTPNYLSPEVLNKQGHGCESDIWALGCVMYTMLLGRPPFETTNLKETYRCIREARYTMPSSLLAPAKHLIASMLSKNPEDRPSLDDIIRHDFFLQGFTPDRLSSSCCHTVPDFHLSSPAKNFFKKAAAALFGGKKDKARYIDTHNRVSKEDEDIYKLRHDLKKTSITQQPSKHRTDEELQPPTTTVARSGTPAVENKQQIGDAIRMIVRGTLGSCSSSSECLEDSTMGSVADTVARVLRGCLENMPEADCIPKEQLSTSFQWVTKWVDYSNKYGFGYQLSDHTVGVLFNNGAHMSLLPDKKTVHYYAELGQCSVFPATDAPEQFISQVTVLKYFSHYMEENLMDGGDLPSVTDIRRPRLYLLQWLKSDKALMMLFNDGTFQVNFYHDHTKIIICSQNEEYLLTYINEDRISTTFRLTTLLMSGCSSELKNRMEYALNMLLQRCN
Data set [14] has as its system HeLa. Put plainly: Induction of apoptosis in human HeLa cells assessed as viable cells at 20 uM after 48 hrs by Annexin V-FITC/propidium iodide staining based flow cytometry (reference value: 39.5%). In kind it is functional. Conditions: read-out: Activity.
Data set [15] has as its system HeLa. Description: Induction of apoptosis in human HeLa cells assessed as late apoptotic cells at 20 uM after 48 hrs by Annexin V-FITC/propidium iodide staining based flow cytometry (reference value: 0%). In kind it is functional.
Data set [16] relates to HeLa. Put plainly: Decrease in cyclin B1 expression level in human HeLa cells after 48 hrs by Western blot analysis. In kind it is functional, cell-based. For orientation: A western blot detects proteins with antibodies after separation by electrophoresis.
For data set [17], the system named is HeLa. Description: Induction of apoptosis in human HeLa cells after 48 hrs by Annexin V-FITC/propidium iodide staining based flow cytometry. In kind it is functional, cell-based.
Data set [18] relates to HeLa. Description: Induction of apoptosis in human HeLa cells assessed as caspase 3 cleavage after 48 hrs by Western blot analysis. The format is functional, cell-based.
Data set [19] deals with HeLa. Description: Cell cycle arrest in human HeLa cells assessed as decrease in G2/M phase at 20 uM after 24 hrs by propidium iodide staining based flow cytometry relative to control. In kind it is functional. More on the design: scale not given: the % may be the effect or the level left.
The nature of data set [20]: Drug uptake in nucleus of human HeLa cells after 3 hrs by DAPI staining based confocal laser scanning microscopy. The format is ADME, subcellular.
Data set [21] deals with HeLa. Put plainly: Cell cycle arrest in human HeLa cells assessed as decrease in G2/M phase at 20 uM after 12 hrs by propidium iodide staining based flow cytometry relative to control. In kind it is functional.
The test system of data set [22] is HeLa. Put plainly: Cell cycle arrest in human HeLa cells assessed as decrease in G2/M phase at 20 uM after 48 hrs by propidium iodide staining based flow cytometry relative to control. In kind it is functional. More on the design: scale not given: the % may be the effect or the level left.
Data set [23] deals with HeLa. Description: Induction of morphological changes in human HeLa cells assessed as nuclei fragmentation at 5 to 20 uM after 48 hrs by Hoechst 33258 staining based fluorescence microscopy. The format is functional, cell-based.
In data set [24] the test system is HeLa. Put plainly: Cell cycle arrest in human HeLa cells assessed as decrease in S phase at 5 to 20 uM after 48 hrs by propidium iodide staining based flow cytometry. In kind it is functional.
In data set [25] the test system is HeLa. Description: Decrease in CDK1 expression level in human HeLa cells after 48 hrs by Western blot analysis. The format is functional, cell-based.
Data set [26] deals with HeLa. Description: Induction of morphological changes in human HeLa cells at 5 to 20 uM after 48 hrs by Hoechst 33258 staining based fluorescence microscopy. The format is functional, cell-based.
Data set [27] concerns HeLa. Put plainly: Induction of apoptosis in human HeLa cells assessed as PARP cleavage after 48 hrs by Western blot analysis. The format is functional, cell-based.
Data set [28] relates to HeLa. Description: Cell cycle arrest in human HeLa cells assessed as decrease in G0/G1 phase at 5 to 20 uM after 48 hrs by propidium iodide staining based flow cytometry. In kind it is functional.
Data set [29] deals with HeLa. Put plainly: Induction of morphological changes in human HeLa cells assessed as chromatin condensation at 5 to 20 uM after 48 hrs by Hoechst 33258 staining based fluorescence microscopy. The format is functional, cell-based.

pIC50: −log10 of the molar value. Calls of active or inactive are those of the source. The calls are words filed in the database; no cut-off is given here. Square brackets hold non-standard residues; d marks the D form. Peptide text beside a SMILES is read from it. Phe(3,4-Cl2) = N[C@@H](Cc1ccc(Cl)c(Cl)c1)C(=O)O; Phe(4-Cl) = N[C@@H](Cc1ccc(Cl)cc1)C(=O)O; pT = C[C@@H](OP(=O)(O)O)[C@H](N)C(=O)O

Chain of Serine/threonine-protein kinase PLK3 (Q9H4B4 whole entry): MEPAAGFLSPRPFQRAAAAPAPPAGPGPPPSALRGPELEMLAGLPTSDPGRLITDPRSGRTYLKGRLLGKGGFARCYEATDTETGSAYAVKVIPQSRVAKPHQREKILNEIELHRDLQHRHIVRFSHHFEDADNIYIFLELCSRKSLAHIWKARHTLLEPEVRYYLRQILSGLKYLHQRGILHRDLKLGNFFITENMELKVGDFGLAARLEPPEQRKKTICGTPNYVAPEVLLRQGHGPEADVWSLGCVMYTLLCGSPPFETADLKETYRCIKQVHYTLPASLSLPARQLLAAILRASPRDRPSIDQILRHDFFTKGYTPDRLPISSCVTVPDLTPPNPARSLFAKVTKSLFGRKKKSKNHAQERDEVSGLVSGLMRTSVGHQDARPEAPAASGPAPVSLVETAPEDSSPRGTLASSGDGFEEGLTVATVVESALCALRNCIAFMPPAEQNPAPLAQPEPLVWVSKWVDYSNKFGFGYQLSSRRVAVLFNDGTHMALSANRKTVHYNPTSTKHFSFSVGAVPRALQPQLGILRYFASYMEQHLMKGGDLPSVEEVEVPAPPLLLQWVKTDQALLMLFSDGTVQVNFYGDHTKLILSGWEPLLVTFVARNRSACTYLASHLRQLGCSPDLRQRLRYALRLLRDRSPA

For the compound `CC[C@H](C)[C@H](NC(=O)[C@H](C)NC(=O)[C@@H](NC(=O)[C@H](CO)NC(=O)[C@H](Cc1cnc[nH]1)NC(=O)[C@H](CC(C)C)NC(=O)[C@@H]1CCCN1C(=O)[C@@H]1CCCN1C(=O)[C@H](CC(=O)O)NC(=O)[C@H](Cc1ccccc1)NC(C)=O)[C@@H](C)OP(=O)(O)O)C(=O)N[C@@H](Cc1ccc(O)cc1)C(=O)N[C@@H](C)C(=O)N[C@@H](CC(N)=O)C(N)=O` (Ac-FDPPLHS[pT]AIYAN-NH2), the Activity in data set [1], in data set [4], in data set [6], in data set [7], in data set [8] and in [9] was 0% in each case. Besides, the Activity in data set [11], in data set [12] and in data set [15] was 0% each time. Further, in data set [2], the viability at 10 µM is 100%. Moreover, in [3], the outcome was inactive. The viability at 5 µM in data set [5] amounted to 100%. Also, the IC50 result in [10] is reported as “Not Active”. Also, the pIC50 in data set [13] (read-out: IC50) is 4.87. Also, the viability at 20 µM in [14] was 100%.

On to `CC[C@H](C)[C@H](NC(=O)[C@H](C)NC(=O)[C@@H](NC(=O)[C@H](CO)NC(=O)[C@H](Cc1cnc[nH]1)NC(=O)[C@H](CC(C)C)NC(=O)[C@@H]1CCCN1C(=O)[C@@H]1CCCN1C(=O)[C@H](CC(=O)O)NC(=O)[C@H](Cc1ccc(OC)cc1)NC(=O)[C@@H](NC(=O)[C@H](CCC(N)=O)NC(C)=O)[C@@H](C)O)[C@@H](C)OP(=O)(O)O)C(=O)N[C@@H](Cc1ccc(O)cc1)C(=O)N[C@@H](C)C(=O)N[C@@H](CC(N)=O)C(N)=O` (Ac-QTY(Me)DPPLHS[pT]AIYAN-NH2), for which the IC50 entry in data set [10] and in data set [13] was “Not Active” each time.

Regarding `CC[C@H](C)[C@H](NC(=O)[C@H](C)NC(=O)[C@@H](NC(=O)[C@H](CO)NC(=O)[C@H](Cc1cnc[nH]1)NC(=O)[C@H](CC(C)C)NC(=O)[C@@H]1CCCN1C(=O)[C@@H]1CCCN1C(=O)[C@H](CC(=O)O)NC(=O)[C@H](Cc1ccc(Cl)c(Cl)c1)NC(=O)[C@@H](NC(=O)[C@H](CCC(N)=O)NC(C)=O)[C@@H](C)O)[C@@H](C)OP(=O)(O)O)C(=O)N[C@@H](Cc1ccc(O)cc1)C(=O)N[C@@H](C)C(=O)N[C@@H](CC(N)=O)C(N)=O` (Ac-QT[Phe(3,4-Cl2)]DPPLHS[pT]AIYAN-NH2), the Activity in data set [1] was 5.9%; in [16] it was “Dose-dependent effect”; in data set [3] it was 24.37 - 67.66%; in data set [17], “Dose-dependent effect”; in data set [4] it was 14.6%; in data set [19], 40%. Further, the Activity in data set [6] is given as 0.1%; in data set [7], 25.2%; in data set [8], 0.2%; in data set [9] it was 1.6%; in [22], 71%; in [11], 46.9%. For the same compound, the Activity is 0.2% in [12], “Dose-dependent effect” in [25] and 2.1% in [15]. Also, the viability at 10 µM in data set [2] amounted to 68.6%. Further, the result in [18], in [23], in data set [24], in data set [26], in data set [27] and in [28] was Active. Besides, the result in data set [29] was Active. Moreover, the viability at 5 µM in data set [5] stood at 83.7%. Further, in data set [20], the Drug uptake result is “Active”. Besides, the result in [21] was inactive. Besides, the IC50 entry in data set [13] was “Not Active”. Further, in [14], the viability at 20 µM came out at 50.8%.

Consider `CC[C@H](C)[C@H](NC(=O)[C@H](C)NC(=O)[C@@H](NC(=O)[C@H](CO)NC(=O)[C@H](Cc1cnc[nH]1)NC(=O)[C@H](CC(C)C)NC(=O)[C@@H]1CCCN1C(=O)[C@@H]1CCCN1C(=O)[C@H](CC(=O)O)NC(=O)[C@H](Cc1ccc(Cl)cc1)NC(=O)[C@@H](NC(=O)[C@H](CCC(N)=O)NC(C)=O)[C@@H](C)O)[C@@H](C)OP(=O)(O)O)C(=O)N[C@@H](Cc1ccc(O)cc1)C(=O)N[C@@H](C)C(=O)N[C@@H](CC(N)=O)C(N)=O` (Ac-QT[Phe(4-Cl)]DPPLHS[pT]AIYAN-NH2), for which the IC50 result in data set [10] and in [13] was “Not Active” throughout.

The term pIC50 denotes −log10 of the IC50, conventionally taken in molar units.
